In patent US8350079B2, “Treprostinil formulation” (United Therapeutics Corporation, priority 2008, dated 2013):

Test: Extended room temperature storage of treprostinil monohydrate lot D-1007-089 (18-month stability summary: water content, assay/impurity profile)
Format: physicochemical
Conditions: for TREPROSTINIL Assay: in % (unit assumed)
Protocol: 2. UT Stability Summary (18-month) for monohydrate lot # D-1007-089
A 3.4-kg sample of treprostinil diethanolamine salt was dissolved in 36 L of sterile water, 60 L of ethyl acetate and 3.6 L of 3 M HCl were added and the mixture stirred. The layers were separated and the aqueous layer was extracted thrice with 20-L portions of ethyl acetate. The four organic layers were combined, the organic solution washed twice with 20-L portions of sterile water, once with 20 L of brine and dried over 2.86 kg of anhydrous sodium sulfate. The mixture was filtered and the filtrate was concentrated to yield treprostinil as a gummy solid. This solid was transferred to glass drying trays and let air-dry for 66 hours. This solid was then dissolved in 23.8 kg of ethanol, warmed to 48° C. and treated with 23.8 kg of warm (40-50° C.) sterile water. The solution was stirred and then stirring was stopped to allow the treprostinil to slowly crystallize. The resulting white solid was collected by filtration in an Aurora filter, washed with 45 L of a cold (6° C.) 20% ethanol in sterile water solution, the filter moved to a Hepa-filtered Finishing Room and the solid dried under house vacuum for 23 hours. The solid was transferred to glass drying trays and further air-dried for 115 hours until the total weight of the material was constant (no further solvent loss). A sample of this treprostinil monohydrate was taken as Lot #D-1007-089 for stability studies. The remaining material was further dried in a vacuum oven at 55° C. and 1.66 Torr for 10 hours to give 2.68 kg (96.4%) of anhydrous treprostinil (Lot #01G07018).
One of the stability studies has followed the monohydrate of TREPROSTINIL stored in an open container.

[1] = 1 Month, Container 1 (closed), room temperature
[2] = 1 Month, Container 2 (covered with Kimwipe), room temperature
[3] = 2 Months, Container 1 (closed), room temperature
[4] = 2 Months, Container 2 (covered with Kimwipe), room temperature
[5] = 3 Months, Container 1 (closed), room temperature
[6] = 3 Months, Container 2 (covered with Kimwipe), room temperature
[7] = 6 Months, Container 1 (closed), room temperature
[8] = 6 Months, Container 2 (covered with Kimwipe), room temperature
[9] = 12 Months, Container 1 (closed), room temperature
[10] = 12 Months, Container 2 (covered with Kimwipe), room temperature
[11] = 18 Month, Container 1 (closed), room temperature
[12] = 18 Month, Container 2 (covered with Kimwipe), room temperature
[13] = Initial, Container 1 (closed), room temperature
[14] = Initial, Container 2 (covered with Kimwipe), room temperature

750W93 [1]: 0.09%
751W93 [1]: 0.04%
Impurity 1 [1]: 0.05
Impurity 2 [1]: 0.05
TREPROSTINIL Ethyl Ester [1]: 0.2%
Total impurities [1]: 0.5%
TREPROSTINIL Assay [1]: 100.1
750W93 [2]: 0.09%
751W93 [2]: 0.04%
Impurity 1 [2]: 0.05
Impurity 2 [2]: 0.05
TREPROSTINIL Ethyl Ester [2]: 0.2%
Total impurities [2]: 0.5%
TREPROSTINIL Assay [2]: 100.4
750W93 [3]: 0.09%
751W93 [3]: 0.04%
Impurity 1 [3]: 0.05
Impurity 2 [3]: 0.05
TREPROSTINIL Ethyl Ester [3]: 0.2%
Total impurities [3]: 0.5%
Water, KF [3]: 4.46%
TREPROSTINIL Assay [3]: 99.5
750W93 [4]: 0.09%
751W93 [4]: 0.04%
Impurity 1 [4]: 0.05
Impurity 2 [4]: 0.05
TREPROSTINIL Ethyl Ester [4]: 0.2%
Total impurities [4]: 0.5%
Water, KF [4]: 4.47%
TREPROSTINIL Assay [4]: 99.6
750W93 [5]: 0.09%
751W93 [5]: 0.04%
Impurity 1 [5]: 0.06
Impurity 2 [5]: <0.05
TREPROSTINIL Ethyl Ester [5]: 0.2%
Total impurities [5]: 0.5%
Water, KF [5]: 4.51%
TREPROSTINIL Assay [5]: 98.1
750W93 [6]: 0.09%
751W93 [6]: 0.04%
Impurity 1 [6]: 0.06
Impurity 2 [6]: <0.05
TREPROSTINIL Ethyl Ester [6]: 0.2%
Total impurities [6]: 0.5%
Water, KF [6]: 4.48%
TREPROSTINIL Assay [6]: 98.6
750W93 [7]: 0.1%
751W93 [7]: 0.04%
Impurity 1 [7]: <0.05
Impurity 2 [7]: <0.05
TREPROSTINIL Ethyl Ester [7]: 0.2%
Total impurities [7]: 0.6%
Water, KF [7]: 4.59%
TREPROSTINIL Assay [7]: 99.4
750W93 [8]: 0.09%
751W93 [8]: 0.04%
Impurity 1 [8]: <0.05
Impurity 2 [8]: <0.05
TREPROSTINIL Ethyl Ester [8]: 0.2%
Total impurities [8]: 0.6%
Water, KF [8]: 4.72%
TREPROSTINIL Assay [8]: 99.3
750W93 [9]: 0.09%
751W93 [9]: < 0.05%
Impurity 1 [9]: 0.06
Impurity 2 [9]: 0.05
TREPROSTINIL Ethyl Ester [9]: 0.2%
Total impurities [9]: 0.5%
Water, KF [9]: 4.72%
TREPROSTINIL Assay [9]: 100.1
750W93 [10]: 0.09%
751W93 [10]: < 0.05%
Impurity 1 [10]: 0.06
Impurity 2 [10]: 0.05
TREPROSTINIL Ethyl Ester [10]: 0.2%
Total impurities [10]: 0.05%
Water, KF [10]: 4.73%
TREPROSTINIL Assay [10]: 100.3
750W93 [11]: 0.09%
751W93 [11]: < 0.05%
Impurity 1 [11]: <0.05
Impurity 2 [11]: 0.05
TREPROSTINIL Ethyl Ester [11]: 0.2%
Total impurities [11]: 0.05%
Water, KF [11]: 4.67%
TREPROSTINIL Assay [11]: 100.3
750W93 [12]: 0.09%
751W93 [12]: < 0.05%
Impurity 1 [12]: <0.05
Impurity 2 [12]: 0.05
TREPROSTINIL Ethyl Ester [12]: 0.2%
Total impurities [12]: 0.05%
Water, KF [12]: 4.72%
TREPROSTINIL Assay [12]: 99.8
750W93 [13]: 0.1%
751W93 [13]: 0.04%
Impurity 1 [13]: 0.06
Impurity 2 [13]: 0.05
TREPROSTINIL Ethyl Ester [13]: 0.2%
Total impurities [13]: 0.5%
Water, KF [13]: 4.55%
TREPROSTINIL Assay [13]: 99.6
750W93 [14]: 0.1%
751W93 [14]: 0.04%
Impurity 1 [14]: 0.05
Impurity 2 [14]: <0.05
TREPROSTINIL Ethyl Ester [14]: 0.2%
Total impurities [14]: 0.5%
Water, KF [14]: 4.37%
TREPROSTINIL Assay [14]: 99.5
Retention of the one mole of water in the solid (open container, over 18-months): has not disappeared
Stability compared with the anhydrous form (room temperature, e.g. 25° C. / ambient temperatures): more stable than the anhydrous form
Compound: CCCCC[C@H](O)CC[C@@H]1[C@H]2Cc3cccc(OCC(=O)O)c3C[C@H]2C[C@H]1O [TREPROSTINIL Lot# D-1007-089, treprostinil monohydrate]
